Laboratory results reported in US20260325485A1, “COMPOSITIONS AND METHODS FOR TREATING PANCREATITIS” (The United States Government as represented by the …, priority 2022, published 2026).

Legend:
[1] = test system: cerulein pancreatitis (CER-AP); test: Drug treatment of cerulein pancreatitis (CER-AP) in WT mice; assay type: in vivo, mouse
Experimental: FIGS. 10A-10N show deranged cholesterol metabolism causes acinar cell damage, while its normalization ameliorates experimental pancreatitis. (A-D) Cholesterol content and trypsin activity were measured (per mg protein) in WT mouse acinar cells incubated for 1 hour without and with methyl-β-cyclodextrin (MCD; 10 mM) or cholesterol-loaded MCD (MCD-Chol; 200 μg/mL), in the presence or absence of 100 nM CCK. Values are expressed relative to those in cells without MCD/MCD-Chol. (E-J) WT mice received daily i.p. injections of the LXR agonist T0901317 (T09), simvastatin (Sim; 20 mg/kg each), or vehicle. On day 4, mice were subjected to CER-AP and pancreata collected for analyses (see also FIG. 20). Cholesterol content (E), trypsin activity (F), and pancreas histopathology (H&E staining; G) were measured. (H, I, L, and N) IB analysis of markers/mediators of autophagy (LC3, p62), ER stress (CHOP, GRP-78), and mitophagy (Parkin). Ub, ubiquitylated proteins. (J) Mitochondrial fragmentation was assessed by immunostaining for Tom20, as detailed in FIG. 7G. (K and L) Mouse acinar cells were treated for 16 hours with LDL (30 μg/mL) or the combination of LDL and 10 μM U18666A. (M and N) Mice received injections of U18666A as detailed in FIG. 9B. Pancreas histopathology (H&E staining; M) and levels of autophagy markers/mediators (N) were measured. Each symbol in A-F and I represents an individual mouse or cell preparation. Values are mean±SEM from 3 to 7 mice or cell preparations per condition. ^§ P<0.05, ^§§ P<0.01 vs. control cells (without MCD/MCD-Chol). ***P<0.001 vs. saline-treated mice. ^#P<0.05, ^##P<0.01, ^###P<0.001 vs. CER-AP alone (no inhibitors). Significance was determined by 2-tailed Student's t test (A-D) or 1-way ANOVA followed by Tukey's multiple comparison test (E, F, and I). Scale bars: 10 μm.
FIGS. 20A-20C show simvastatin improves cerulein pancreatitis. Mice received daily i.p. injections of simvastatin (Sim; 20 mg/kg) or vehicle (see FIG. 10), and on day 4 were subjected to cerulein pancreatitis (CER-AP). (A) Pancreas histopathology (H&E staining; scale: 10 μm). (B) IB analysis of markers/mediators of autophagy (LC3, p62), ER stress (CHOP), and the MLN64/STARD3 protein mediating cholesterol transfer from LE/Ly to mitochondria. Each IB lane represents an individual mouse; ERK1/2 is the loading control. […] Ub, ubiquitylated proteins. (C) Pancreatitis responses. Values are mean±SEM from 7-13 mice for each condition. ***p<0.001 vs saline control. ^###p<0.001 vs CER-AP alone (no simvastatin). Significance was determined by 1-way ANOVA followed by Tukey's multiple comparisons test.
FIGS. 25A-25C show reducing cholesterol overload greatly ameliorates experimental pancreatitis. CER-AP responses were measured in (A) AclyAac or (C) WT mice treated with simvastatin or bempedoic acid (BemA). (B) Acinar cells were transfected with ACLA (or mock) siRNA and subjected to ex-vivo CCK-AP. Each symbol represents an individual mouse or cell preparation. Values are mean±SE. **p<0.01, ***p<0.001 vs saline treated control mice (or mock transfection); #p<0.05, ##p<0.01, ###p<0.001 vs CER/CCK-AP in control mice (i.e. without inhibitors) or cells.
Cerulein-induced (CER-AP) and L-arginine induced (Arg-AP) acute pancreatitis models were performed in 12-week-old C57BL/6 mice that received 7 hourly i.p. injections of 50 μg/kg cerulein or 3 hourly i.p. injections of 3.3 g/kg Arg; controls received physiologic saline injections. Mice were euthanized for analyses 7 hours after the first cerulein or 24 hours after the first Arg injection. Choline deficient, ethionine-supplemented (CDE) pancreatitis was induced in young (~5-weeks old) female mice fed either CDE or control diet. Mice were euthanized 72 hours after the diet initiation. These models have been described in detail (1-7).
12-week-old WT mice were subjected for 4 consecutive days to daily i.p. injections of 20 mg/kg simvastatin (8,9) or 20 mg/kg T0901317 (10); or 10 mg/kg U18666A for 15 days (11). […]

pancreas = test: Drug treatment of Gnptab−/− mice: pancreatic total cholesterol; assay type: in vivo, mouse
Experimental: 12-week-old Gnptab−/− mice were subjected to daily i.p. injections of 20 mg/kg simvastatin or the same dose of T0901317 for 4 or 21 days.
Total cholesterol content was measured with Cholesterol Assay kit per manufacturer's instructions. Samples of mouse pancreas and liver, cell pellet homogenates, subcellular fractions, isolated mitochondria, and serum were diluted in the reaction buffer containing cholesterol probe and incubated at 37° C. for 1 h in the dark. To measure total cholesterol, the samples were subjected to digestion with cholesterol esterase. To measure non-esterified cholesterol, the esterase was omitted from the assay.

[2] = CER-AP, T0901317 or simvastatin 20 mg/kg i.p. daily
[3] = WT mice treated with simvastatin or BemA

CCC(C)(C)C(=O)O[C@H]1C[C@@H](C)C=C2C=C[C@H](C)[C@H](CC[C@@H]3C[C@@H](O)CC(=O)O3)[C@H]21 [simvastatin]
CER-induced increase in MLN64 ([1]; CER-AP, 20 mg/kg i.p. daily): abrogated
accumulation of LC3-II ([1]; CER-AP, 20 mg/kg i.p. daily): reduced
accumulation of p62 ([1]; CER-AP, 20 mg/kg i.p. daily): reduced
accumulation of ubiquitylated proteins ([1]; CER-AP, 20 mg/kg i.p. daily): reduced
mitochondrial fragmentation (Tom20 IF) ([1]; CER-AP, 20 mg/kg i.p. daily): normalized
CHOP levels ([1]; CER-AP, 20 mg/kg i.p. daily, ER stress): decreased
pancreatitis-induced increase in total cholesterol [1, 2]: eliminated
pancreatitis-induced increase in trypsin activity [1, 2]: eliminated
other pancreatitis responses ([1]; CER-AP, simvastatin 20 mg/kg i.p. daily, FIG. 20C): ameliorated
pancreas histopathology in CER-AP ([1]; H&E, 20 mg/kg i.p. daily): improved
cholesterol overload in CER-AP (FIG. 25C) [1, 3]: decreased
inflammation in CER-AP (FIG. 25C) [1, 3]: ameliorated
necrosis in CER-AP (FIG. 25C) [1, 3]: ameliorated
trypsin activity in CER-AP (FIG. 25C) [1, 3]: ameliorated
pathologic responses of experimental pancreatitis (impaired autophagy, ER stress and others) ([1]; discussion statement): reduced
experimental pancreatitis in WT mouse and ex vivo models ([1]; overall result): ameliorated
total cholesterol content in pancreas, Gnptab−/− mice (pancreas; 20 mg/kg i.p. daily for 4 or 21 days): Neither treatment changed
pancreatic total cholesterol, Gnptab−/− mice (pancreas; even for 3 weeks): failed to decrease
